# From patent publication US20210244713A1, “ANHYDROUS COMPOSITIONS OF mTOR INHIBITORS AND METHODS OF USE” (PALVELLA THERAPEUTICS, INC., priority 2018, published 2021)
# What was measured:
# [1] = Ex vivo skin permeation experiment; format: in vitro ADME, Human
# Procedure: Human donor skin was placed between upper and lower compartments. The lower compartment was filled with receiver fluid. Various rapamycin compositions were applied on the surface of the skin facing the upper compartment (11 formulations (i.e., O3, NA21, NA22, NA21, NA17, TD201, NA19, NA25, AG14, NA26 and NA24), n=6 replicates, dosage 10 mg/cm^2) and left for 24 hrs. A positive displacement pipette was used to apply the formulation (˜10 mg/cm^2) to the plunger of a 1 mL syringe. The formulation (10+/−0.5 mg) was applied to the skin surface and spread over the diffusion area using the plunger. Prior to and after the application the weight of the plunger was recorded, from which the dose per cell was calculated.
# Following the time period, the excess rapamycin compositions were wiped from the skin surface and the skin layers were separated into stratum corneum, epidermis, and dermis. The Stratum corneum was removed from the human skin using a tape stripping procedure. The epidermis was separated from the dermis by dry heating at 60° C. for 2 min. Rapamycin was extracted from each layer by 90:10 v/v ethanol:water solvent mixture, and quantified. The receiver fluid in the lower compartment was also analyzed for the presence of rapamycin.
# [2] = Solubility of rapamycin in solvents and solvent combination
compound,measurement,setting,value
"CO[C@H]1C[C@@H]2CC[C@@H](C)[C@@](O)(O2)C(=O)C(=O)N2CCCC[C@H]2C(=O)O[C@H]([C@H](C)C[C@@H]2CC[C@@H](O)[C@H](OC)C2)CC(=O)[C@H](C)/C=C(\C)[C@@H](O)[C@@H](OC)C(=O)[C@H](C)C[C@H](C)/C=C/C=C/C=C/1C [Rapamycin, rapamycin (sirolimus)]",amount of rapamycin found on the surface of the skin,"[1]; after 24 hours, relative to skin layers",greatest amount
same,amount of rapamycin quantified in both the epidermis and dermis over time,[1]; ex vivo human skin,increase
same,drug residing in the epidermis versus stratum corneum or dermal layer,[1]; ex vivo human skin,more of the drug residing in the epidermis
same,rapamycin detected in the receiver fluid,"[1]; ex vivo human skin, any of the time points across the experimental period",not detected
same,Solubility capacity of each excipient based on concentration in formulation,[2]; IPA at 15.00 wt %,0.56 wt %
same,Solubility capacity of each excipient based on concentration in formulation,"[2]; IPA at 15.00 wt %, listed as rapamycin",−0.56 wt %
same,Solubility capacity of each excipient based on concentration in formulation,[2]; PEG 400 at 60.00 wt %,1.03 wt %
same,Solubility capacity of each excipient based on concentration in formulation,[2]; diisopropyl adipate (DIA) at 15.00 wt %,0.26 wt %
same,Solubility capacity of each excipient based on concentration in formulation,[2]; glycerol at 10.00 wt %,0.08 wt %
same,"Solubility capacity of the solvent system (expected maximum, simple linear additive effect)",[2]; sum of the excipient capacities,1.93 wt %
